This note sets out measurements from PubChem BioAssay (NCI).

What all share (experiment): NCI-60 cell line screen, 48 h
Assay [1] has as its system CAKI-1 renal.
Assay [2] relates to COLO 205 colon.
For assay [3], the system named is IGROV1 ovarian.
Assay [4] has as its system LOX IMVI melanoma.
For assay [5], the system named is MDA-N.
Assay [6] relates to OVCAR-8 ovarian.
The subject of assay [7] is PC-3 prostate.
The subject of assay [8] is SF-268 CNS.
Assay [9] concerns SK-MEL-28 melanoma.
Assay [10] deals with SNB-75 CNS.
In assay [11] the test system is UACC-257 melanoma.
Assay [12] deals with UACC-62 melanoma.
Assay [13] relates to RPMI-8226 leukemia.

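96-well plates; 48 h exposure; 5 concentrations. Endpoints by linear interpolation between flanking doses. Not reached: highest tested concentration assigned. Definition used: TGI = concentration required for complete inhibition of growth.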

For `O=[N+]([O-])c1ccc(S[C@@H]2[C@H]3c4c(-c5ccccc5)[nH]c(-c5ccccc5)c4[C@@H]2C[C@H]3Cl)cc1`, the TGI in assay [1] was more than 100 µM; in [2], more than 100 µM; in assay [3] it was more than 100 µM; in assay [4], 15.4 µM; in assay [5] it was 18.6 µM; in assay [6], more than 100 µM. Further, the TGI in assay [7] was more than 100 µM; in assay [8], 25.7 µM; in assay [9], more than 100 µM; in assay [10], 8.29 µM; in [11], more than 100 µM; in assay [12], 37.3 µM.

With `CCCCc1cc2c(C)cc(=O)oc2c(O)c1O`, the TGI in [1] was 53.3 µM; in [2] it was 56.5 µM; in [3] it was 51.7 µM; in assay [4], 61 µM; in assay [5], more than 100 µM; in assay [6] it was more than 100 µM. In addition, the TGI in assay [7] was 68.1 µM; in assay [13], 43.3 µM; in [8] it was more than 100 µM; in assay [9], more than 100 µM; in [10] it was more than 100 µM; in assay [11], 66.1 µM.

With `Clc1ccc(Cc2nc3ccccc3nc2-c2cccc(Br)c2)cc1`, the TGI is 5.1 µM in [1]; 12 µM in assay [2]; 3.49 µM in assay [3]; 3.73 µM in [4]; 4.19 µM in [5]; 8.09 µM in [6]. For the same compound, the TGI came out at 4.88 µM in assay [7]; 3.81 µM in assay [13]; 44.9 µM in assay [8]; 35.7 µM in assay [10]; 7.7 µM in [11]; 4.01 µM in assay [12].

As for `Cc1cc(=O)n2nc(SCc3ccccc3)sc2n1`, the TGI in [2], in [3], in assay [4], in assay [5], in assay [6] and in [7] was more than 100 µM in each case. Besides, the TGI in assay [13], in assay [8], in [9], in assay [10] and in assay [12] was more than 100 µM throughout.

For `Cc1ccc(C(=O)N/N=C(\N=Nc2cccc(Cl)c2)c2ccc(N(CCC#N)CCC#N)cc2C)cc1`, the TGI in [1], in assay [2], in assay [3], in assay [4], in assay [5] and in [6] was more than 100 µM in each case. Also, the TGI in assay [7], in assay [13], in [9], in assay [10], in assay [11] and in assay [12] was more than 100 µM throughout.

For `N#Cc1nc(CCCCCN2C(=O)c3ccccc3C2=O)oc1N`, the TGI in assay [1], in assay [2], in assay [3], in assay [4], in assay [5] and in assay [6] was more than 100 µM in each case. The TGI in assay [7], in assay [13], in assay [8], in [9] and in assay [11] was more than 100 µM throughout.

On to `CCOC(=O)c1c(N2CCCC2)ncn(-c2ccccc2)c1=S`, for which the TGI in assay [2], in assay [3], in assay [4], in [5], in [6] and in assay [7] was more than 100 µM throughout. Besides, the TGI in [13], in [8], in assay [9], in assay [10], in [11] and in assay [12] was more than 100 µM in each case.

With `NC(=S)N/N=C\c1ccc(OCc2cccc(COc3ccc(/C=N/NC(N)=S)cc3)n2)cc1`, the TGI in assay [1], in [2], in assay [3], in assay [4], in [5] and in assay [6] was more than 100 µM in each case. The TGI in assay [7], in assay [13], in assay [8], in assay [9], in assay [10] and in assay [11] was more than 100 µM throughout.

Regarding `Cc1ccc(S(=O)(=O)NNC(=O)c2cc(C)ccc2NC(=O)C23CC4CC(CC(C4)C2)C3)cc1`, the TGI in [1] was more than 100 µM; in assay [2] it was more than 100 µM; in assay [3], 30.6 µM; in [4] it was more than 100 µM; in assay [5], more than 100 µM; in assay [6] it was more than 100 µM. Moreover, the TGI in [7], in assay [13], in assay [8], in assay [11] and in assay [12] was more than 100 µM throughout.

On to `N#CC(C#N)=C1C(C#N)=C(N)NC12OCCO2`, for which the TGI in assay [1], in assay [2], in assay [3], in assay [4], in assay [5] and in assay [6] was more than 100 µM each time. The TGI in assay [7], in assay [13], in assay [8], in assay [9], in assay [11] and in [12] was more than 100 µM throughout.

Turning to `CCOC(=O)C(=[N+]=[N-])C(=O)Nc1nn2nnnc2c2ccccc12`, the TGI in assay [1], in assay [2], in assay [3], in assay [4], in [5] and in assay [6] was more than 100 µM each time. For the same compound, the TGI in assay [7], in assay [13], in assay [9], in assay [10], in assay [11] and in [12] was more than 100 µM in each case.
